Source: ChEMBL document CHEMBL4706515, “Discovery of new [1,2,4] Triazolo[1,5-a]Pyrimidine derivatives that Kill gastric cancer cells via the mitochondria pathway” (Eur J Med Chem, 2020)
Active and inactive are the calls of the source. The calls are words filed in the database; no cut-off is given here.

What was measured:
MKN-45 = test: Antiproliferative activity against human MKN-45 cells assessed as inhibition of cell growth at measured after 72 hrs by SRB assay; type: functional
GES1 = test: Cytotoxicity against human GES1 cells assessed as inhibition of cell growth at measured after 72 hrs by SRB assay; type: cell-based; conditions: ges1, 72 h
MGC-803 [1] = test: Induction of apoptosis in human MGC-803 cells assessed as viable cells at 2.5 uM measure after 24 hrs by Annexin-PI staining based Flowcytometry method (reference value: 80%); type: functional; conditions: read-out: Activity
MGC-803 [2] = test: Induction of apoptosis in human MGC-803 cells assessed as late apoptotic cells at 10 uM measure after 24 hrs by Annexin-PI staining based Flowcytometry method (reference value: 7.06%); type: functional
SGC-7901 [3] = test: Induction of apoptosis in human SGC-7901 cells assessed as early apoptotic cells at 1.25 uM measure after 24 hrs by Annexin-PI staining based Flowcytometry method (reference value: 2.68%); type: functional
SGC-7901 [4] = test: Induction of apoptosis in human SGC-7901 cells assessed as necrotic cells at 5 uM measure after 24 hrs by Annexin-PI staining based Flowcytometry method (reference value: 1.16%); type: functional
MGC-803 [5] = test: Induction of mitochondrial membrane potential loss in human MGC-803 cells at 2.5 uM measured after 24 hrs by JC-1 staining based flow cytometry method (reference value: 0.344%); conditions: Mitochondria
MGC-803 [6] = test: Induction of apoptosis in human MGC-803 cells assessed as increase in ROS production preincubated for 1 hr with NAC followed by compound addition at 2.5 uM measured after 24 hrs by DCHF-DA staining based Flowcytometry method; type: functional, cell-based
MGC-803 [7] = test: Antiproliferative activity in human MGC-803 cells assessed as cell viability preincubated with chloroquine followed by compound addition measured after 24 hrs by SRB staining method; type: functional, cell-based
[8] = Selectivity index, ratio of GI50 for human MGC803 to GI50 for human GES-1 cells

**Q.** What does the source list for `Cc1cc(Nc2ccc(C(=O)/C=C/c3cccc(Br)n3)cc2)n2nc(SCc3nc4ccccc4[nH]3)nc2n1`?
**A.** GI50 (MKN-45): 640 nM; Activity (GES1): Non-Toxic; viability at 2.5 µM (MGC-803 [1]): 86.4%; Activity (MGC-803 [2]): 36.4%; Activity (SGC-7901 [3]): 1.59%; Activity (SGC-7901 [4]): 0.586%; Activity (MGC-803 [5]): 3.25%; Activity (MGC-803 [6]): inactive; inhibition (MGC-803 [7]): inactive; RatioGI50 [8]: 6.9
